From patent publication US12162855B2, “Tetrahydroquinolino derivatives for the treatment of metastatic and chemoresistant cancers” (THE TRUSTEES OF PRINCETON UNIVERSITY, priority 2018, dated 2024)

What was measured:
Aldh1a1 = biological target: T1, Aldh1a1 (Homo sapiens, UniProt P00352); assay: ALDEFLUOR assay in MCF7 cells transduced with human Aldh1a1; assay type: cell-based; conditions: concentrations below 10 μM
T1 construct: expressed in transfected cells; host or cells: MCF7, lentiviral pLex vector
T1 sequence (P00352 1-501): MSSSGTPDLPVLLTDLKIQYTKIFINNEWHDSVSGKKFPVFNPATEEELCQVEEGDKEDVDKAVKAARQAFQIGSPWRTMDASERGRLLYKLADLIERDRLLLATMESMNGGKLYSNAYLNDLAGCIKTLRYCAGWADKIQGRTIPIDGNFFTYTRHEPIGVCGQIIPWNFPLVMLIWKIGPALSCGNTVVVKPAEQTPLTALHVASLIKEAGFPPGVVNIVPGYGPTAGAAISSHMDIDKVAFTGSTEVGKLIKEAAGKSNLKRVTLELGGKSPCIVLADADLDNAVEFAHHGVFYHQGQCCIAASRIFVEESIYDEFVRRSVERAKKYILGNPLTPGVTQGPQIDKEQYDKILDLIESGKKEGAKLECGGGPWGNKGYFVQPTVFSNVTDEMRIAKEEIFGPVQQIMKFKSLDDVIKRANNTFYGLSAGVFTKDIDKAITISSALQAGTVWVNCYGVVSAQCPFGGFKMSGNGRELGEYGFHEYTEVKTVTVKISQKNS
Description: The coding sequences of Aldh1a1, Aldh1a2, Aldh1a3 and Aldh3a1 were cloned from cDNA made from pooled human reference RNA samples. Cloned sequences flanked by Age1 and Xho1 restriction sites were inserted into the pLex lentiviral plasmid. Clones were sequenced and compared against NCBI expressed sequence tags (ESTs) for accuracy. […]. Viruses were collected and filtered at 0.45 μm, then cells were transduced using polybrene (8 μg/mL) for 12 hours, followed by culture with 1 μg/mL puromycin for the duration of experiments. All viral transduction and selection was performed on a cell population-wide basis.
(§1) Cells were counted, centrifuged and resuspended at 1,000,000 cells/mL in ALDEFLUOR™ buffer (Stemcell Technologies). ALDEFLUOR™ substrate (Stemcell Technologies, 1:200) and test compound or 1 mM DEAB were added to cell suspension and incubated at 37° C. for 45 minutes with vortexing every 15 minutes. Cells were centrifuged and resuspended in ALDEFLUOR™ buffer with DAPI at 5 μg/mL. Samples were analyzed with the BD LSR2 flow cytometry platform. Gating was performed using DEAB as a negative control.

ALDH1a3 = biological target: T2, ALDH1a3 (Homo sapiens, UniProt P47895); assay: ALDEFLUOR assay in cell lines of a variety of cancer types; assay type: cell-based; conditions: ALDEFLUOR-positive cells, various cancer cell lines
T2 construct: endogenous in cells; host or cells: panel of cancer cell lines (e.g. Sum159-M1a, MDA-MB-468 and others of b212)
T2 sequence (P47895 2-512): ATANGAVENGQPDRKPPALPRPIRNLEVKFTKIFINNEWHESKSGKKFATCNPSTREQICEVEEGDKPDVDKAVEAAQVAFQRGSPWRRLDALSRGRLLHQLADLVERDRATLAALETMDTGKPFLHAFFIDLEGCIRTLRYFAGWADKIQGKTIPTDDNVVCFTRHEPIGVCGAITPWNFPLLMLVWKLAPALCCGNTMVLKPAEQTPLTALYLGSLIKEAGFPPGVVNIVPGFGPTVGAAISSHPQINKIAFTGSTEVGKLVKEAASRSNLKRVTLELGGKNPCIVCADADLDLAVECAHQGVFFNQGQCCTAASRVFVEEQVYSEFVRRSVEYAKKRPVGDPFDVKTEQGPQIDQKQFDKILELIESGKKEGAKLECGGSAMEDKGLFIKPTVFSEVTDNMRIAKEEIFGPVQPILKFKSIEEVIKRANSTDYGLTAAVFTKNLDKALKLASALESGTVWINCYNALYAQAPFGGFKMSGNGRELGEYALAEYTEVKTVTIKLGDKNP
Source text: Cell lines were labeled with retroviral vectors with bi-cistronic expression of GFP/firefly luciferase to facilitate imaging and flow cytometry experiments. All cell lines were verified negative for mycoplasma contamination by monthly PCR analysis. No cells lines used here appear in the database of commonly misidentified cell lines (ICLAC). All cell lines were validated with STR analysis and compared to NCBI repository data.
as §1
A notable exception is liver cancer, where it is expected that a large ALDEFLUOR™-positive population exists, and is driven by ALDH1a1.

bone marrow cells = assay: Ex vivo analysis of ALDH activity in murine lymphocytes (ALDEFLUOR); assay type: cell-based, mouse
Description: Bone marrow cells were collected from 12-week old […] mice via tibia and femur flush with PBS and were passed through a 100-μm cell sieve. Thymocytes and spleenocytes were isolated from corresponding tissues and were isolated by physical disruption against a 100 μm cell sieve. Cells were washed via centrifugation/resuspension and then suspended at 10^7 cells/mL. The ALDEFLUOR™ assay with or without MBE1 was then conducted on these cells as described except with the addition of either […] (Biolegend #100308), anti-CD11c (BD Pharmigen #561119), anti-CD45 (eBioscience 30-F11), or anti-CD317 (Biolegend 129c1) during the incubation period at 1:200.
Similar results (not shown) were obtained in other populations tested, including CD45-positive and CD3e-positive (CD45+CD3e+) and CD11c-positive and CD317-positive (CD11+CD317+).

SUM159-M1-p44 cells = assay: Lung metastasis xenograft, SUM159-M1-p44 cells by tail-vein injection, BLI; assay type: in vivo, mouse; conditions: three doses of 50 mg/kg in combination with 25 mg/kg paclitaxel, days 17, 19 and 21
Description: In another xenograft experiment, mice were injected with SUM159-M1-p44 cells via tail-vein injection, as described above, and randomized following injection. Metastatic burden was imaged on day 16 via intravital imaging. Mice were then treated with paclitaxel (25 mg/kg) and either vehicle or MBE1.5 (50 mg/kg) on days 17, 19 and 21. Lung metastatic burden was then imaged on day 22. Signals were normalized to day 16.

Row | SMILES | inhibition of Aldh1a1 activity (FIG. 2A) (Aldh1a1) | inhibition of ALDH1a3 activity in a variety of cancer types (FIG. 3A) (ALDH1a3) | effect on ALDEFLUOR activity of CD11c-positive bone marrow cells (FIG. 4B) (bone marrow cells; murine bone marrow) | effect on ALDEFLUOR activity of CD45-positive bone marrow cells (FIG. 4A) (bone marrow cells; murine bone marrow) | effect on ALDEFLUOR activity of all populations tested (incl. CD45+CD3e+, CD11+CD317+) (bone marrow cells; murine cells) | lung metastasis by BLI (FIG. 14) (SUM159-M1-p44 cells)
1 | CCc1cnccc1C(=O)Nc1cc2c(cc1F)NC(=O)CC2 [MBE1, 3-ethyl-N-(7-fluoro-2-oxo-1,2,3,4-tetrahydroquinolin-6-yl)isonicotinamide] | does not inhibit | inhibited by MBE1 in many cancer types | – | – | – | –
2 | CCc1ccccc1C(=O)Nc1cc2c(cc1F)NC(=O)CC2 [MBE1.5, 2-ethyl-N-(7-fluoro-2-oxo-1,2,3,4-tetrahydroquinolin-6-yl)benzamide] | – | – | not affected | not affected | not affected | caused regression of established metastatic disease
